In patent publication US7462615B2, “Inhibitors of cysteine proteases, the pharmaceutical compositions thereof and their therapeutic applications” (Hybrigenics SA, priority 2005, dated 2008) one finds IC50 and GI50 data, which are given here for one substance.

What is called GI50 is the concentration at which growth is held to half of that of the control.

pIC50: −log10 of the molar value.

For test [1], the target named is T1, Caspase 3 (Homo sapiens, UniProt P42574).
T1 sequence (P42574 29-175 limits assumed): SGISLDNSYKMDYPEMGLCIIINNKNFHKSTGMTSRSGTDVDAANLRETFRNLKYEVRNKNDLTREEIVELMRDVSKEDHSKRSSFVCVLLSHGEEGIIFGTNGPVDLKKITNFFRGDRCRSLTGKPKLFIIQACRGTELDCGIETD
T1 sequence (P42574 176-277 limits assumed): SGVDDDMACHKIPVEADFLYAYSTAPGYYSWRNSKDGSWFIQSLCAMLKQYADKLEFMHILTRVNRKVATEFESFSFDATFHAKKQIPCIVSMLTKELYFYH
Briefly: Caspase 3 Activity Assay. It is filed as biochemical. The conditions noted are these: 500 nM Ac-DEVD-AMC; 3.2 nM enzyme; pre-incubated 30 minutes at 25° C., 60 minutes at 37° C.; sigmoidal fit; read-out: Caspase 3 (Inhibition of cysteine protease activities). As to the method:
Caspase 3 was diluted in Caspase B buffer (100 mM Hepes pH 7.5; 10% sucrose; 0.1% CHAPS). Compounds stocks (100 mM) were stored at −20° C. in DMSO. Compounds were tested at the following final concentrations: 100 μM; 33.3 μM; 11.1 μM; 3.7 μM; 1.23 μM; 412 nM; 137 nM; 45.7 nM; 15.2 nM; 5 nM. Reactions were performed as duplicates in Black LJL 96 well plates (HE microplates; Molecular Devices; 20 μl final reaction volume). The substrate concentration for caspase 3 specificity assay was 500 nM (Ac-DEVD-AMC; Promega). The concentration of the enzyme (Caspase 3) in specificity assays was 3.2 nM. The concentrations were determined in order to perform specificity assays under initial velocities at fixed substrate concentration. Compounds were pre-incubated with enzymes for 30 minutes at 25° C. Reactions were initiated by addition of substrate to the plates containing the enzymes (+/− compounds) diluted in assay buffer. Reactions were incubated for 60 minutes at 37° C. Reactions were stopped by adding acetic acid (100 mM final) Readings were performed on a Pherastar Fluorescent Reader (BMG). δ Emission 380 nm; δ Excitation=460 nm. Data (mean values +/− standard deviation) were analyzed as % of control (no compound) and plotted as percentage versus the Log of the compound concentration using GraphPad (Prism). Data were fitted to a sigmoidal model (variable slope).

The target in test [2] is Cathepsin B (Homo sapiens, UniProt P07858). The test can be described thus: Cathepsin B Activity Assay. It is filed as biochemical. The conditions noted are these: 36 μM z-RR-AMC; 3.6 nM enzyme; pre-incubated 30 minutes at 25° C., 60 minutes at 37° C.; sigmoidal fit; read-out: Cathepsin B (Inhibition of cysteine protease activities). As to the method: Cathepsin B was diluted in Cathepsin B buffer (20 mM Tris HCl pH 6.8; 1 mM EDTA; 1 mM DTT). Compounds stocks (100 mM) were stored at −20° C. in DMSO. Compounds were tested at the following final concentrations: 100 μM; 33.3 μM; 11.1 μM; 3.7 μM; 1.23 μM; 412 nM; 137 nM; 45.7 nM; 15.2 nM; 5 nM. Reactions were performed as duplicates in Black LJL 96 well plates (HE microplates; Molecular Devices; 20 μl final reaction volume). The substrate concentration for cathepsin B specificity assay was 36 μM (z-RR-AMC; Calbiochem). The concentration of the enzyme (Cathepsin B) in specificity assays was 3.6 nM. The concentrations were determined in order to perform specificity assays under initial velocities at fixed substrate concentration. Compounds were pre-incubated with enzymes for 30 minutes at 25° C. Reactions were initiated by addition of substrate to the plates containing the enzymes (+/− compounds) diluted in assay buffer. Reactions were incubated for 60 minutes at 37° C. Reactions were stopped by adding acetic acid (100 mM final). Readings were performed on a Pherastar Fluorescent Reader (BMG). δ […]. Data (mean values +/− standard deviation) were analyzed as % of control (no compound) and plotted as percentage versus the Log of the compound concentration using GraphPad (Prism). Data were fitted to a sigmoidal model (variable slope).

Test [3] deals with HCT116 colon cancer cells. The test can be described thus: HCT116 Cell Viability and Proliferation Assay. Type of test: cell-based. The note with it: 72 hours, MTS, mean of three independent experiments, read-out: HCT116 GI50 D3. As to the method: HCT116 colon cancer cells were obtained from ATCC (American Type Culture Collection), and maintained in Mc Coy's 5A medium containing 10% FBS, 3 mM glutamine and 1% penicillin/streptomycin. Cells were incubated at 37° C. in a humidified atmosphere containing 5% CO2.
Cell viability was assayed using the MTS technique in 96-well culture plates (CellTiter 96® Aqueous Non-Radioactive Cell Proliferation Assay, Promega) according to the manufacturer's instructions. MTS (3-(4,5-dimethylthiazol-2-yl)-5(3-carboxymethoxyphenyl)-2-(4-sulfophenyl)-2H-tetra-zolium) is a MTT-derived tetrazolium that is reduced in metabolically active cells into a soluble, cell-permeant formazan. The amount of formazan, detected by its absorbance at 492 nm is proportional to the number of living, metabolically active cells.
10^3 HCT116 cells were seeded per well. 24 hours later, the medium was changed and the cells treated in triplicate with the following concentrations of each compound: 10 μM-3.33 μM-1.11 μM-370 nM-123 nM-41 nM-14 nM and 5 nM. The compounds were diluted in 100% DMSO, whose final concentration on cells was kept at 0.5%.
(§1) Cells were incubated with the compounds for 72 hours, and their viability then assayed by the addition of MTS for 2 hours. Absorbance at 492 nm was measured directly from the 96-well culture plates. GI50 (Growth Inhibition 50) concentrations for each compound were calculated using a sigmoidal variable slope fit (Prism 4.0, Graphpad Softwares). Values represent mean of three independent experiments.

Test [4] has as its system PC-3 prostate cancer cells. Briefly: PC3 Cell Viability and Proliferation Assay. It is filed as cell-based. The note with it: 72 hours, MTS, mean of three independent experiments, read-out: PC3 GI50 D3. As to the method:
PC-3 prostate cancer cells were obtained from ATCC, and maintained in F-12K medium containing 7% FBS and 1% penicillin/streptomycin. Cells were incubated at 37° C. in a humidified atmosphere containing 5% CO2.
Cell viability was assayed using the MTS technique in 96-well culture plates (CellTiter 96® Aqueous Non-Radioactive Cell Proliferation Assay, Promega) according to the manufacturer's instructions. MTS (3-(4,5-dimethyl-thiazol-2-yl)-5-(3-carboxymethoxyphenyl)-2-(4-sulfophenyl)-2H-tetrazolium) is a MTT-derived tetrazolium that is reduced in metabolically active cells into a soluble, cell-permeant formazan. The amount of formazan, detected by its absorbance at 492 nm is proportional to the number of living, metabolically active cells.
2×10^3 PC3 cells were seeded per well. 24 hours later, the medium was changed and the cells treated in triplicate with the following concentrations of each compound: 10 μM-3.33 μM-1.11 μM-370 nM-123 nM-41 nM-14 nM and 5 nM. The compounds were diluted in 100% DMSO, whose final concentration on cells was kept at 0.5%.
as §1

For the substance “6-(7)-Chloro-1-methyl-2,3,4,10,10a-pentaaza-cyclopenta[b]fluoren-9-one [Example 3/A]”, the pIC50 is 5.82 in test [1] and 4.76 in test [2]. The GI50 came out at 0.361 µM in test [3] and 0.994 µM in test [4].
